# Results taken from patent US12503707B2, “Methods, plants and compositions for overcoming nutrient suppression of mycorrhizal symbiosis” (Cambridge Enterprise Limited, priority 2020, dated 2025).
# How the values were obtained:
# [1] = test system: M. truncatula root epidermal cells; test: Nuclear calcium imaging after CO/LCO treatment; format: cell-based, Medicago truncatula; details: lateral roots; −N−P and +N+P conditions
# Experimental: For calcium analyses M. truncatula seedlings were grown on Buffered Nodulation Media (BNM) agar with 100 nM Aminoethoxyvinylglycine (AVG; Sigma-Aldrich) until lateral roots emerged (FIGS. 1A-1B). […] The lateral roots were fixed in a small chamber made on a cover glass using vacuum grease, with 500 μl of BNM buffer. The roots were then treated with COs (CO4 or CO8), LCOs (non-sulfated LCO (NS-LCO) or a LCO derived from Sinorhizobium meliloti (SmLCO)), at the concentrations indicated in FIGS. 1A-1B. Recordings were collected on an inverted epifluorescence microscope (model TE2000; Nikon). Yellow cameleon YC3.6 was excited with an 458-nm laser and imaged using emission filters 476-486 nm for CFP and 529-540 nm for YFP. The calcium images were collected every 5 seconds with 1 second exposure and analyzed using Metafluor (Molecular Devices). Calcium traces used the intensity ratio of YFP to CFP. For better visualization of calcium signals, the traces were flattened to a single axis by subtracting the values with moving average as the following formula:
# [formula] Where Sf is the flattened signal, So is the original signal, and MA is the moving average of the value. For each element i, MA is calculated as:
# [formula] where m is the arbitrary number of points to calculate the average, w=[m/2] and xj is the signal at point j. M. truncatula Gene Expression
# [2] = test system: M. truncatula LysM receptor-like kinase (LysM RLK) genes; test: LysM RLK gene expression by qRT-PCR after GR24 and/or TIS108 treatment; format: in vivo, Medicago truncatula; details: BNM plates 4 days
# Experimental: FIGS. 24A-24E show the effects of nutrient starvation and strigolactone and/or karrikin treatment on M. truncatula RLK gene expression levels. […] As indicated from left to right above the heat map, M. truncatula was grown under limiting nitrate (−N, 0 mM NO3^− and 3.75 mM PO4^−), limiting phosphate (−P, 5 mM NO3^− and 0.0075 mM PO4^−), or limiting nitrate and phosphate (−N−P, 0 mM NO3^− and 0.0075 mM PO4^−). The relative expression level of each condition is normalized to expression when plants were grown under replete nitrate and replete phosphate (+N+P, 5 mM NO3^− and 3.75 mM PO4^−). As indicated from left to right below the heatmap, expression was measured either 5, 10, or 15 days after germination (“DAG”). The color scale indicates the relative expression levels, with black representing the lowest expression and light grey representing the highest expression. FIGS. 24B-24E show expression of M. truncatula genes after seedlings were grown on BNM plates for 4 days, and then treated with either DMSO (mock), 0.1 μM synthetic strigolactone analog GR24, 1 μM strigolactone-biosynthesis inhibitor TIS108, or both (0.1 μM GR24 and 1 μM TIS108) for 24 hours, as indicated on the x-axis. […] In each of FIGS. 24B-24E gene expression was determined by RT-qPCR, relative expression levels is on the y-axis, and the asterisks indicate the relative level of statistical significance as determined by a Student's t-test.
# Gene expression was measured by qRT-PCR (FIGS. 2A-2B). Plants were grown on modified BNM plates (described above) with 100 nM AVG for four days, the plants were then carefully transferred to liquid BNM with the appropriate nutrient concentrations along with COs, PGN, flg22 and SmLCO, at a final concentration of 10^−7 M COs, 10^−7 M flg22, 0.4 mg/ml PGN and 10^−8 M SmLCO. After incubation for 6 h, plant roots were harvested and frozen in liquid nitrogen. […] An aliquot of each total RNA sample was used to determine RNA concentration and purity assessed on the NanoDrop ND-1000 spectral photometer (Peglab, Erlangen, Germany). RNA integrity was analyzed on the 2100 Bioanalyzer using RNA 6000 Nano LabChip Kits (Agilent Technologies). […] Gene expression was determined by an ABI 7500 using a SYBR green PCR master mix (Bio-Rad). […] Expression data were analyzed from the average of threshold cycle (CT) value, using an M. truncatula endogenous Histone 2A (H2A) gene as reference and fold induction calculated for treatment of elicitors relative to treatment with DMSO. […]
# Gene expression was measured by RNA-seq. […] M. truncatula RLK gene expression levels were measured by qRT-PCR (FIGS. 24B-24E), as described in Example 1.
# [3] = test system: R. irregularis colonization of H. vulgare; test: Mycorrhizal colonization assay with R. irregularis; format: in vivo, Hordeum vulgare; details: 0.1 μM GR24 twice a week
# Experimental: FIGS. 14A-14D provide the effects of treating H. vulgare plants with a strigolactone or with both a strigolactone and a CEP peptide. […] Plants were grown under high nitrate and high phosphate (5 mM NO3^− and 0.5 mM PO4^−) and cells were treated with 10^−7 M SmLCO. The top trace represents cells without any additional treatment, the middle trace represents cells that were pre-treated with 1 μM 5-deoxystrigol, and the bottom trace represents cells that were pre-treated with 1 μM 5-deoxystrigol and 1 μM CEP3. The scale bar indicates a span of 10 minutes, and the fractions indicate the number of cells that responded over the total number of cells analyzed. FIGS. 14B-14C provide the level of mycorrhizal colonization of H. vulgare when treated with the synthetic strigolactone analog GR24 under different nutrient conditions, as determined in two separate experiments. In FIG. 14B, colonization was measured 7 weeks post inoculation, and the x-axis indicates the nutrient conditions tested, and whether the plants were treated with GR24. […] In FIG. 14C, colonization was measured 6 weeks post inoculation, and the x-axis indicates the nutrient conditions tested, and whether the plants were treated with GR24. […] In FIGS. 14B-14C, the y-axis represents the percentage of roots colonized by mycorrhizal fungi, and the shading of each bar represents the fungal structure quantified. […]
# [4] = then 24 hours, 0.1 μM GR24, 1 μM TIS108
smiles,measurement,setting,value
CC(=O)N[C@H]1[C@H](O[C@H]2[C@H](O)[C@@H](NC(C)=O)C(O)O[C@@H]2CO)O[C@H](CO)[C@@H](O[C@@H]2O[C@H](CO)[C@@H](O[C@@H]3O[C@H](CO)[C@@H](O)[C@H](O)[C@H]3NC(C)=O)[C@H](O)[C@H]2NC(C)=O)[C@@H]1O (some centres unmarked) [CO4],nuclear symbiotic calcium oscillations (Cells spiking),[1],promoted nuclear symbiotic oscillations
CC(=O)N[C@H]1[C@H](O[C@H]2[C@H](O)[C@@H](NC(C)=O)[C@H](O[C@H]3[C@H](O)[C@@H](NC(C)=O)[C@H](O[C@H]4[C@H](O)[C@@H](NC(C)=O)C(O)O[C@@H]4CO)O[C@@H]3CO)O[C@@H]2CO)O[C@H](CO)[C@@H](O[C@@H]2O[C@H](CO)[C@@H](O[C@@H]3O[C@H](CO)[C@@H](O[C@@H]4O[C@H](CO)[C@@H](O[C@@H]5O[C@H](CO)[C@@H](O)[C@H](O)[C@H]5NC(C)=O)[C@H](O)[C@H]4NC(C)=O)[C@H](O)[C@H]3NC(C)=O)[C@H](O)[C@H]2NC(C)=O)[C@@H]1O (some centres unmarked) [CO8],nuclear symbiotic calcium oscillations (Cells spiking),[1],promoted nuclear symbiotic oscillations
O=C(c1ccccc1)C(CCCCOc1ccccc1)n1cncn1 (centres unmarked) [TIS108],LysM RLK gene expression compared to mock treatment,[2]; then 1 μM TIS108 for 24 hours,either the same or lower
CC1=C[C@H](O/C=C2/C(=O)O[C@@H]3c4ccccc4C[C@H]23)OC1=O [GR24],promotion of mycorrhizal colonization,"[3]; 7 weeks post inoculation, no inhibitory effect of high phosphate seen",could not be observed
same,mycorrhizal colonization,"[3]; high phosphate (500 μM) and low nitrate (0.5 mM), 6 weeks post inoculation",promoted mycorrhizal colonization
same,MtKUF1 expression compared to mock treatment,[2]; [4],significantly increased
same,MtLYK8 expression compared to mock treatment,[2]; [4],significantly increased
same,MtLYK10 expression compared to mock treatment,[2]; [4],significantly increased
